# Tests used:
# [1] = system: P. falciparum female gametes; assay: Pf FGAA with compounds added 30 min after triggering gametocyte activation (gamete-targeting); type: cell-based, Plasmodium falciparum NF54; settings: Plasmodium falciparum; 0h incubation time
# [2] = system: P. falciparum stages IV–V gametocytes; assay: Gametocytocidal ATP-depletion assay (gametocyte ATP bioluminescence); type: cell-based, Plasmodium falciparum; settings: Plasmodium falciparum, mean
# How it was run: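 Read-out is luciferase luminescence of parasite ATP (BacTiter-Glo), standing in for viability. Double-purified mature stage IV–V gametocytes, 12,500 per well, were exposed 48 h at 37 °C in low-O2 gas; screening concentration 2 μM.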
# [3] = system: P. falciparum male gametocytes (exflagellation); assay: Exflagellation assay (male gametocytes); type: cell-based, Plasmodium falciparum; design: Exflagellation Inhibition %: concentration or dose not given beside the values
# Description: Figure 5 Exflagellation inhibition by six TCAMS compounds. Stage V gametocyte cultures were exposed to 2 μM of TCMDC-141070 and 1 μM of the five remaining compounds for 48 h. The percentage inhibition was determined compared to DMSO-treated controls. Compounds were then progressed into SMFA to further determine the transmission blocking in mosquitoes. Each bar represents mean value of two (TCMDC-125345, TCMDC-141698, TCMDC-123767, TCMDC-141154) or three (TCMDC-141070, TCMDC-124559) independent replicates with s.d.
# Exflagellation was measured as previously reported[24] with minor modifications. Using 5 ml of day-14 gametocyte cultures, parasites were incubated with the corresponding concentration for each compound in six-well plates at 37 °C (3% O2, 5% CO2 and 92% N2). After 48 h incubation, a 200 μl sample was spun down in a microfuge, the supernatant was carefully removed and the pellet resuspended in 15 μl of pre-warmed ookinete medium. Parasites were placed in Fast-Read disposable haemocytometer slides and, after 15 min at room temperature (22 °C), exflagellation centres per field were counted under × 10 objective.
# [4] = system: P. falciparum oocysts in Anopheles stephensi mosquitoes; assay: Standard membrane feeding assay (SMFA), indirect format; type: cell-based, Plasmodium falciparum; design: Oocyst Reduction Intensity %: concentration or dose not given beside the values; settings: for Block in transmission (%) (reduction in oocyst prevalence): 1 or 2 μM (Pf FGAA IC90)
# Description: To validate the transmission-blocking potential of the TCAMS hits and assess the predictive value of the Pf FGAA as an in vitro high throughput surrogate of full mosquito feeding, the ‘gold-standard' SMFA was performed. Six compounds showing different biological profiles, belonging to four distinct chemical clusters, were selected based on their potencies in the Pf FGAA (Supplementary Data 1, Table 1). For each compound, inhibition of exflagellation of male gametocytes was measured. […] Compounds were tested in duplicate in 2–3 independent experiments in the indirect format of the assay, that is, gametocytes were exposed to the drug for 48 h before mosquito feeding to replicate a drug exposure time equivalent to that used in the Pf FGAA. […] By contrast, TCMDC-124559 reduced prevalence and intensity by <20% (Fig. 6a,b, respectively).
# Day-14 gametocyte cultures were plated in pre-warmed six-well-plates (5 ml per well) and were exposed to the compounds (1 μM or 2 μM final concentration) for 48 h at 37 °C (3% O2, 5% CO2 and 92% N2). Within this incubation time, 3 ml of media were removed after the first 24 h and replenished with the same volume of fresh media with compound added to obtain the required final concentration. After 48 h of total exposure, cultures were centrifuged at 2,500 g for 3 min at 37 °C, diluted 1:1 with 100% packed volume of fresh erythrocytes and finally formulated as artificial mosquito blood meals at 50% haematocrit with pre-warmed human serum. All steps were performed at 37 °C to avoid gametocyte activation. Four- to six-day old female Anopheles stephensi mosquitoes (GlaxoSmithKline Insectary) were fed for 30 min via Parafilm membrane attached to glass feeders (12831283, Fisher Scientific) connected to a 37 °C circulating water bath. Fed mosquitoes were maintained in an incubator at 27 °C and 75% relative humidity with 12 h light/dark cycles. Seven to eight days post-feeding, mosquitoes with fully developed ovaries were dissected for midguts, which were rinsed in a 0.2% mercury-dibromofluorescein (63869, Fluka) in water solution for 10 min. Total number of oocysts in individual midguts were counted using a light microscope (DM2000, Leica) under a × 10 objective. The percentage of block in transmission (reduction in prevalence) and the percentage of reduction in mean oocyst intensity were calculated after normalizing to the control DMSO-treated sample. Two to three independent SMFA experiments were performed and two internal duplicates of 40 mosquitoes each were used per compound. Mean oocyst intensities were not less than two oocysts per mosquito and the prevalence of infection ranged from 70 to 90% in the fed mosquito control groups. See complete experimental data set in Supplementary Table 1 and Supplementary Note 1.
# [5] = In vivo pharmacokinetic study, single oral dose; design: species or system CD-1 mice
# Description: Female CD-1 mice (Harlan Interfauna Iberica) at 8 weeks of age were used for single oral dose pharmacokinetic studies (n=2). Dosing solutions were prepared in 20% (v:v) Captisol in water, at a target dose of 50 mg kg^−1 (dose volume of 20 ml kg^−1). After oral dosing, blood samples (25 μl) were collected at 30 min, 1 h, 6 h and 8 h post dose for TCMDC-123767. All the blood samples were diluted with 25 μl of an aqueous solution of saponine 1% (w:v), and stored at −80 °C until analysis. Mice blood samples were analysed for each compound using a method upon protein precipitation followed by LC-MS/MS analysis (Applied Biosystems). Data analysis of the concentration time profiles was performed by noncompartmental methods by using WinNonLin Phoenix Version 6.3.
# [6] = system: P. falciparum asexual blood stages; settings: ref 1 (Gamo, F. J. et al., Nature 465, 305-310, 2010), cited from earlier work; for IC50: TCAMS asexual blood stage data, read-out: Pf Asexual blood stages XC50; for Pf Asexual stages XC50: TCAMS data
# [7] = 48 h exposure, 2 μM TCMDC-141070, 1 μM other compounds, vs DMSO, mean of 2-3 replicates
# [8] = 48 h exposure before feeding, mean of 2-3 experiments
Compound,IC50 [1],inhibition at 2 µM [2],"Inhibition of exflagellation (%) [3, 7]",Exflagellation Inhibition % ([3]; Expt 1),Exflagellation Inhibition % ([3]; Expt 2),"Block in transmission (%) (reduction in oocyst prevalence) [4, 8]",Block in Transmission % ([4]; Expt 1),Mean Oocyst Intensity in Test Compound ([4]; Expt 1),Oocyst Reduction Intensity % ([4]; Expt 1),Prevalence of Infection in Test Compound ([4]; Expt 1),Block in Transmission % ([4]; Expt 2),Mean Oocyst Intensity in Test Compound ([4]; Expt 2),Oocyst Reduction Intensity % ([4]; Expt 2),Prevalence of Infection in Test Compound ([4]; Expt 2),IC50 [6],Pf Asexual stages XC50 [6],Block in Transmission % ([4]; Expt 3),Mean Oocyst Intensity in Test Compound ([4]; Expt 3),Oocyst Reduction Intensity % ([4]; Expt 3),Prevalence of Infection in Test Compound ([4]; Expt 3),other results
FC(F)(F)c1cnc(Sc2nnc(-c3ccncc3)o2)c(Cl)c1 [TCMDC-123767],> 20 µM,-5.49%,88%,88%,88%,83%,83%,0.1,97%,13.26,85%,0.1,97%,13.2,0.27 µM,0.27 µM,–,–,–,–,"elimination in vivo ([5]; oral 50 mg kg^−1, mouse): rapidly eliminated; exposure levels in blood ([5]; oral 50 mg kg^−1, mouse): very low; last detected in blood above the lower limit of quantification (time post-administration) ([5]; oral 50 mg kg^−1, mouse blood, LLOQ 2.5 ng ml^−1): 1 h"
CC1Cc2ccccc2N1S(=O)(=O)c1cccc(C(=O)Nc2nc(-c3ccccn3)cs2)c1 (centres unmarked) [TCMDC-124559],–,8.95%,30%,28%,0%,< 20%,5%,4.1,24%,74.29,0%,2.5,0%,70,1.32 µM,1.32 µM,13%,2.8,39%,79.17,"Exflagellation Inhibition % ([3]; Expt 3): 60%; reduction in oocyst intensity ([4]; 48 h exposure before feeding, 1 or 2 μM, mean of 2-3 experiments): < 20%"
COc1cc(OC)cc(C(=O)Nc2nc(-c3ccccn3)cs2)c1 [TCMDC-125345],4.95 µM,39.5%,50%,47%,–,60%,54%,0.7,88%,35.97,58%,1.0,83%,38.22,0.56 µM,0.56 µM,–,–,–,–,–
CC(C)(CNC(=O)[C@H]1CCCCN1)c1nc(-c2ccc(Cl)c(O)c2)c(-c2ccncc2)[nH]1 [TCMDC-141070],1.77 µM,-0.73%,–,75%,–,–,100%,0,100%,0,78%,0.2,92%,15.4,0.73 µM,0.73 µM,100%,0,100%,0,"inhibition at 2 µM ([3]; Plasmodium falciparum, 48 h exposure, 2 μM TCMDC-141070, 1 μM other compounds, vs DMSO, mean of 2-3 replicates): 99%"
NCC1(c2nc(-c3ccc(Cl)c(O)c3)c(-c3ccncc3)[nH]2)CCCCC1 [TCMDC-141154],0.25 µM,-10.5%,97%,97%,97%,93%,93%,0.1,99%,5.46,93%,0.1,98%,6.16,0.74 µM,0.53 µM,–,–,–,–,–
Cc1ccc(Cn2nc(Cl)c(N3CCNCC3)cc2=O)cc1NC(=O)Nc1ccc(-c2ccccc2)cc1 [TCMDC-141698],1.93 µM,-7.4%,84%,–,87%,82%,82%,0.2,97%,14.04,90%,0.2,97%,8.8,0.68 µM,0.67 µM,–,–,–,–,–

# From publication PMC5442318, “Hundreds of dual-stage antimalarial molecules discovered by a functional gametocyte screen” (Nature Communications, 2017)
